The results in this text go back to article PMC7824209, “Bioactive Bis(indole) Alkaloids from a Spongosorites sp. Sponge” (Marine Drugs, 2020).

In brackets after ≈: the same amount, converted by molar mass. Read-outs that look alike come from different tables or passages of the source.

The test system of test [1] is K562 cell line. Description: MTT cytotoxicity assay. It is filed as cell-based. As to conditions: Homo sapiens; MTT assay, K562; read-out: IC50 K562. The protocol: (§1) An MTT assay was performed as previously described to determine the cytotoxicity against A549 and K562 cell lines. These cancer cell lines were purchased from the Korean Cell Line Bank (KCLB), Seoul, Republic of Korea.
On the technique in general: Formazan colour is commonly taken as a measure of viable cells.

Test [2] relates to A549 cell line. Description: MTT cytotoxicity assay. It is filed as cell-based. To be noted: Homo sapiens; MTT assay, A549; read-out: IC50 A549. The protocol:
as §1

In test [3] the test system is Enterococcus faecalis ATCC19433. Briefly: Antibacterial activity MIC. The test is classed as cell-based. As to conditions: Gram-positive, ATCC19433, read-out: Antibacterial Activity MIC, Enterococcus faecalis.
Test [4] concerns Salmonella enterica ATCC14028. Briefly: Antibacterial activity MIC. The test is classed as cell-based. To be noted: Gram-negative, ATCC14028, read-out: Antibacterial Activity MIC, Salmonella enterica.
Test [5] concerns S. aureus strain Newman. Briefly: Antibacterial activity MIC. It is filed as cell-based. To be noted: Staphylococcus aureus; Gram-positive; strain Newman; read-out: Antibacterial Activity MIC, S. aureus.
The test system of test [6] is Trichophyton mentagrophytes IFM40996. Description: Antifungal activity MIC. It is filed as cell-based.
The test system of test [7] is Enterococcus faecium ATCC19434. Description: Antibacterial activity MIC. It is filed as cell-based. As to conditions: Gram-positive, ATCC19434, read-out: Antibacterial Activity MIC, Enterococcus faecium.
Test [8] deals with Escherichia coli ATCC25922. Briefly: Antibacterial activity MIC. As to conditions: Gram-negative; for MIC: Escherichia coli, read-out: Antibacterial Activity MIC, E. coli. The test is classed as cell-based.
Test [9] concerns Aspergillus fumigatus HIC6094. Briefly: Antifungal activity MIC. The test is classed as cell-based.
For test [10], the system named is Trichophyton rubrum NBRC9185. Briefly: Antifungal activity MIC. The test is classed as cell-based.
Test [11] concerns the target T1, recombinant SrtA from S. aureus ATCC6538p (Staphylococcus aureus, UniProt Q2FV99).
T1 construct: made in house; host or cells: Escherichia coli
Briefly: SrtA inhibition assay (fluorescence, dabcyl-LPETG-edans cleavage). The test is classed as biochemical. The source says: The same bioassays were pursued with the new compounds and the known congeners, with a particular emphasis on SrtA inhibition. The rationale of SrtA inhibition is that this transpeptidase decorates the surfaces of Gram-positive bacteria with a diverse array of proteins that enable microbes to effectively interact with their environment, and it is not required for bacterial growth or viability. It is thus considered a promising target for the development of anti-virulence drugs aimed at interfering with important virulence mechanisms such as adhesion to host tissues. To assess the SrtA inhibitory activity of compounds 1–14, recombinant SrtA derived from S. aureus ATCC6538p was purified from Escherichia coli extracts using metal chelate-affinity chromatography. The enzyme activity was determined from the fluorescence intensity upon cleavage of a peptide substrate containing the LPETG motif.
Before evaluating the SrtA inhibitory activity of the test compounds, recombinant SrtA from S. aureus ATCC6538p was prepared according to methods described in a previous paper. The SrtA inhibitory activity of the test compounds was determined according to previously described methods with minor modifications. The reaction was carried out with 100 μL buffer (50 mM Tris-HCl, 5 mM CaCl2, and 150 mM NaCl, pH 7.5), 7.5 µM synthetic peptide dabcyl-LPETG-edans (AnaSpec, Inc., Fremont, CA, USA), 7.5 µM purified SrtA, and test samples at various concentrations. […] The SrtA inhibition assay was conducted at 37 °C for 1 h, and inhibition was quantified fluorometrically using a microplate reader (FLx800, BioTek Instruments, Winooski, VT, USA) at excitation and emission wavelengths of 350 and 495 nm, respectively. Berberine chloride and triphasiol were used as reference inhibitors of SrtA.

For test [12], the system named is Klebsiella pneumoniae ATCC10031. Briefly: Antibacterial activity MIC. To be noted: Gram-negative, ATCC10031, read-out: Antibacterial Activity MIC, Klebsiella pneumonia. The test is classed as cell-based.
For test [13], the system named is Candida albicans ATCC10231. Briefly: Antifungal activity MIC. The test is classed as cell-based.

T1 sequence (Q2FV99 whole entry): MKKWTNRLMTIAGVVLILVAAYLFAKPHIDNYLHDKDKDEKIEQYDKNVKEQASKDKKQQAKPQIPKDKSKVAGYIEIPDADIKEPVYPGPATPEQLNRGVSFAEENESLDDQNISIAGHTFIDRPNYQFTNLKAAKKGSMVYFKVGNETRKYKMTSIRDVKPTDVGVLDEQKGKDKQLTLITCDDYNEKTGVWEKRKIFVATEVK

On to `O=C1NC(c2c[nH]c3cc(Br)ccc23)CN=C1c1c[nH]c2ccccc12` (stereo in doubt) [Compound 11, (R)-6′′-debromohamacanthin A], for which the results for the half-maximal inhibitory concentration (IC50) in [1], in test [2] and in [11] were above 100 µM, 39.6 µM and 47.5 µM, respectively. The MIC – broadly, the least concentration at which growth counts as inhibited – in [3] was 32 µg/mL (≈ 78.6 µM); in test [4], 16 µg/mL (≈ 39.3 µM); in [5], 8 µg/mL (≈ 19.6 µM); in [6], above 128 µg/mL; in [7] it was 32 µg/mL (≈ 78.6 µM); in test [8], above 128 µg/mL. Moreover, the minimal inhibitory concentration (MIC) in test [9] is above 128 µg/mL; in [10], above 128 µg/mL; in [12], 8 µg/mL (≈ 19.6 µM); in test [13], above 128 µg/mL. For the same molecule, the “Antibacterial Activity MIC, E. coli” value in test [8] is above 128 µg/mL.
With `CO[C@@]1(C(=O)c2c[nH]c3cc(O)ccc23)N=C(c2c[nH]c3ccccc23)C(=O)N1` [Compound 1, spongosoritin A], the values for the IC50 in [1], in test [2] and in test [11] were 24.2 µM, 77.3 µM and above 330 µM, respectively. Moreover, the minimum inhibitory concentration (MIC) in [3], in test [4], in [5], in test [6], in [7] and in test [8] was above 128 µg/mL in each case. The MIC in test [9], in test [10], in test [12] and in [13] was above 128 µg/mL in each case.
For `CO[C@@]1(C(=O)c2c[nH]c3ccccc23)N=C(c2c[nH]c3ccccc23)C(=O)N1` [Compound 2, spongosoritin B], the half-inhibitory concentration (IC50) – broadly, the concentration needed to halve the response being measured – was 28.5 µM in test [1], 55.7 µM in test [2] and 62.7 µM in test [11]. Moreover, the MIC in [3] is above 128 µg/mL; in test [4], 128 µg/mL (≈ 344 µM); in test [5] it was 64 µg/mL (≈ 172 µM); in test [6], above 128 µg/mL; in test [7] it was above 128 µg/mL; in [8], above 128 µg/mL. Further, the MIC in test [9] was above 128 µg/mL; in [10] it was above 128 µg/mL; in test [12], 128 µg/mL (≈ 344 µM); in test [13], above 128 µg/mL.
As for `CO[C@@]1(C(=O)c2c[nH]c3ccccc23)N=C(c2c[nH]c3cc(Br)ccc23)C(=O)N1` [Compound 3, spongosoritin C], the IC50 in test [1] worked out at 37.7 µM; in test [2], 61.2 µM; in test [11] it was 43.9 µM. Besides, the MIC in test [3] is 128 µg/mL (≈ 284 µM); in [4], 64 µg/mL (≈ 142 µM); in test [5] it was 32 µg/mL (≈ 70.9 µM); in test [6], above 128 µg/mL; in test [7] it was above 128 µg/mL; in test [8], above 128 µg/mL. Further, the MIC in test [9], in test [10], in test [12] and in [13] was above 128 µg/mL throughout.
`CO[C@@]1(C(=O)c2c[nH]c3cc(O)ccc23)N=C(c2c[nH]c3cc(Br)ccc23)C(=O)N1` [Compound 4, spongosoritin D]: the 50% inhibitory concentration (IC50) in test [1] was 54.2 µM; in test [2], 70.9 µM; in [11], above 275 µM. The MIC in test [3] is 128 µg/mL (≈ 274 µM); in test [4], 64 µg/mL (≈ 137 µM); in test [5], 16 µg/mL (≈ 34.2 µM); in test [6], above 128 µg/mL; in test [7] it was 128 µg/mL (≈ 274 µM); in test [8] it was above 128 µg/mL. Besides, the MIC in test [9], in test [10], in [12] and in [13] was above 128 µg/mL throughout.
In the case of `O=C(NCC(=O)c1c[nH]c2ccccc12)NC(=O)c1c[nH]c2cc(O)ccc12` [Compound 5, spongocarbamide A], the figures for the half-inhibitory concentration (IC50) in test [1], in test [2] and in test [11] were 92.8 µM, above 100 µM and 79.4 µM, respectively. Besides, the MIC in [3], in test [4], in [5], in test [6], in test [7] and in test [8] was above 128 µg/mL each time. Moreover, the MIC in test [9], in test [10], in test [12] and in test [13] was above 128 µg/mL throughout.
Take `O=C(NCC(=O)c1c[nH]c2cc(Br)ccc12)NC(=O)c1c[nH]c2cc(O)ccc12` [Compound 6, spongocarbamide B]: the figures for the 50% inhibitory concentration (IC50) in test [1], in [2] and in test [11] were above 100 µM, above 100 µM and 52.4 µM, respectively. Also, the MIC in [3] was above 128 µg/mL; in [4] it was 128 µg/mL (≈ 281 µM); in test [5], 64 µg/mL (≈ 141 µM); in test [6], above 128 µg/mL; in test [7] it was above 128 µg/mL; in test [8], above 128 µg/mL. For the same molecule, the minimal inhibitory concentration (MIC) in test [9], in test [10], in test [12] and in test [13] was above 128 µg/mL in each case.
In the case of `O=C(c1nc(-c2c[nH]c3ccccc23)c[nH]1)c1c[nH]c2cc(O)ccc12` [Compound 7, topsentin], the figures for the IC50 in [1], in test [2] and in test [11] were 15.3 µM, 25.3 µM and above 374 µM, respectively. Also, the minimum inhibitory concentration (MIC) is 64 µg/mL (≈ 187 µM) in test [3]; 64 µg/mL (≈ 187 µM) in [4]; 32 µg/mL (≈ 93.5 µM) in test [5]; above 128 µg/mL in [6]; 64 µg/mL (≈ 187 µM) in test [7]; above 128 µg/mL in [8]. Also, the minimum inhibitory concentration (MIC) was above 128 µg/mL in test [9], above 128 µg/mL in [10], 64 µg/mL (≈ 187 µM) in test [12] and above 128 µg/mL in test [13]. For the same molecule, in test [8], the “Antibacterial Activity MIC, E. coli” value was above 128 µg/mL.
On to `O=C(c1ncc(-c2c[nH]c3ccccc23)[nH]1)c1c[nH]c2cc(Br)ccc12` [Compound 8, isobromodeoxytopsentin], for which, in test [11], the IC50 was determined as 41.3 µM.
On the same count and under the same terms, to `O=C(c1ncc(-c2c[nH]c3cc(Br)ccc23)[nH]1)c1c[nH]c2ccccc12` [Compound 9, bromodeoxytopsentin] belongs 34 µM.
In the case of `O=C(c1nc(-c2c[nH]c3cc(Br)ccc23)c[nH]1)c1c[nH]c2cc(O)ccc12` [Compound 10, bromotopsentin], the half-maximal inhibitory concentration (IC50) in [1] was 43.2 µM; in test [2], 38.9 µM; in test [11] it was 53.2 µM. Moreover, the minimum inhibitory concentration (MIC) in test [3] was 32 µg/mL (≈ 76 µM); in test [4] it was 16 µg/mL (≈ 38 µM); in test [5], 8 µg/mL (≈ 19 µM); in test [6], above 128 µg/mL; in test [7] it was 16 µg/mL (≈ 38 µM); in test [8], above 128 µg/mL. Further, the minimal inhibitory concentration (MIC) is above 128 µg/mL in test [9], above 128 µg/mL in test [10], 64 µg/mL (≈ 152 µM) in [12] and above 128 µg/mL in test [13]. Besides, in [8], the “Antibacterial Activity MIC, E. coli” value was above 128 µg/mL.
Regarding `CC1(C)S[C@@H]2[C@H](NC(=O)[C@H](N)c3ccccc3)C(=O)N2[C@H]1C(=O)O` [ampicillin, reference compound], the MIC in [3] stood at 0.5 µg/mL (≈ 1.43 µM); in [4], 0.25 µg/mL (≈ 0.715 µM); in [5] it was 0.13 µg/mL (≈ 0.372 µM); in test [7] it was 1 µg/mL (≈ 2.86 µM); in test [8], 8 µg/mL (≈ 22.9 µM).
Take `COc1ccc2cc3[n+](cc2c1OC)CCc1cc2c(cc1-3)OCO2` [berberine chloride, reference compound]: in test [11], the half-maximal inhibitory concentration (IC50) stood at 87.4 µM.
Take `COc1cccc2c1C(=O)c1c(O)c3c(c(O)c1C2=O)C[C@@](O)(C(=O)CO)C[C@@H]3O[C@H]1C[C@H](N)[C@H](O)[C@H](C)O1` [doxorubicin, reference compound]: the values for the half-maximal inhibitory concentration (IC50) in [1] and in test [2] were 0.92 µM and 0.64 µM, respectively.
On to `CN(C)[C@@H]1C(O)=C(C(N)=O)C(=O)[C@@]2(O)C(O)=C3C(=O)c4c(O)cccc4[C@@](C)(O)[C@H]3C[C@@H]12` [tetracycline, reference compound], for which, in test [12], the minimal inhibitory concentration (MIC) is 0.25 µg/mL (≈ 0.563 µM).
Consider `CC(C)C(=O)Cc1c(OCC(O)C(C)(C)O)ccc2ccc(=O)oc12` (stereo not drawn) [triphasiol, reference compound], for which the IC50 in test [11] (7.5 µM SrtA, 7.5 µM dabcyl-LPETG-edans, 37 °C, 1 h, pH 7.5, read-out: IC50 Srt A) amounted to 37.9 µM.
